Assay [1] has as its target T1, Amyloid-beta precursor protein (Homo sapiens, UniProt P05067). Nature of the assay: Binding affinity to 5R to 22E residues of 15N-labelled amyloid beta (1 to 42) (unknown origin) expressed in Escherichia coli BL21 (DE3)-pLysS cells assessed as chemical shift perturbation by measuring dissociation constant by Chemical shift mapping NMR analysis.
The test system of another assay is SH-SY5Y. Nature of the assay: Neuroprotective activity against amyloid beta (1 to 42)-induced cytotoxicity in human SH-SY5Y cells assessed as increase in cell viability at 0.000001 to 10 mM preincubated with compound for 48 hrs followed by stimulation with amyloid beta(1 to 42) and measured after 18 hrs by MTT assay. It is filed as functional, cell-based. The note with it: dose lower 1 nM, dose upper 10.0 mM.

Assay [2] concerns the target T1, Amyloid-beta precursor protein. Nature of the assay: Inhibition of 15N-labelled amyloid beta (1 to 42) (unknown origin) expressed in Escherichia coli BL21 (DE3)-pLysS cells fibrillization assessed as absence of observable number of protofibrils at 1:20 protein to compound molar ratio incubated for 192 hrs by AFM microscopic analysis.
Assay [3] shares this target. The assay is described as follows: Inhibition of 15N-labelled amyloid beta (1 to 42) (unknown origin) expressed in Escherichia coli BL21 (DE3)-pLysS cells fibrillization assessed as decrease in indicator of fibrillization (DoF) by AFM microscopic analysis.
For assay [4] the target is unchanged. Nature of the assay: Disaggregation of 15N-labelled amyloid beta (1 to 42) (unknown origin) expressed in Escherichia coli BL21 (DE3)-pLysS cells in pH 7.4 buffer assessed as absence of mature fibrils at 1:20 protein to compound molar ratio incubated for 192 hrs by AFM microscopic analysis.
The target is the same in assay [5]. The assay is described as follows: Inhibition of 15N-labelled amyloid beta (1 to 42) (unknown origin) expressed in Escherichia coli BL21 (DE3)-pLysS cells fibrillization assessed as absence of mature fibrils at 1:20 protein to compound molar ratio incubated for 192 hrs by AFM microscopic analysis.
For assay [6] the target is unchanged. The assay is described as follows: Disaggregation of 15N-labelled amyloid beta (1 to 42) (unknown origin) expressed in Escherichia coli BL21 (DE3)-pLysS cells in pH 7.4 buffer assessed as absence of bundle of fibrils at 1:20 protein to compound molar ratio incubated for 192 hrs by AFM microscopic analysis.

Calls of active or inactive are those of the source. The rule behind the calls is not given here. Where a SMILES comes first, the peptide text is derived from it. [ ]: non-standard residue; d: D form. Aib = CC(C)(N)C(=O)O

T1 sequence (P05067 whole entry): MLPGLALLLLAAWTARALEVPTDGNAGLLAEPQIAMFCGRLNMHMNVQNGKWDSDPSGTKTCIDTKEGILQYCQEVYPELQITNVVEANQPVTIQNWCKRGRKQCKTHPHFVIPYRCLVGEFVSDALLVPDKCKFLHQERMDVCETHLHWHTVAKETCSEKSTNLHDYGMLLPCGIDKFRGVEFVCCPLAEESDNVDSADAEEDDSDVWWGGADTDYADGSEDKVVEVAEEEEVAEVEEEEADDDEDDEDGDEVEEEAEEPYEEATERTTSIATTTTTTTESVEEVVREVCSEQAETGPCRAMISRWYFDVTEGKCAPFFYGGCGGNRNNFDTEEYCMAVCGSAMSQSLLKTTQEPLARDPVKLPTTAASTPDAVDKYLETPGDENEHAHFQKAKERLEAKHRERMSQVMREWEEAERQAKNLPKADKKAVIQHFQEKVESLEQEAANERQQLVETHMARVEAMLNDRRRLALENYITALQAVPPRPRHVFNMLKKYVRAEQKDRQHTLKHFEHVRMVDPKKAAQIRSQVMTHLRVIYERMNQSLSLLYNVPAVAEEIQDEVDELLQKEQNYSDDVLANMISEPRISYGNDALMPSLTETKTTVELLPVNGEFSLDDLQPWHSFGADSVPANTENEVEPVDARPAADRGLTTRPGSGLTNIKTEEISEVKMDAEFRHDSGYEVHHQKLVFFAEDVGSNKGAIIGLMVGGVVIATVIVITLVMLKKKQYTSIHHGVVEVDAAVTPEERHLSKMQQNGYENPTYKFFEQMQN

For the molecule H-SYSTPGK-OH, the Kd in assay [1] worked out at 0.65 mM. For the same molecule, the outcome (in the assay on SH-SY5Y; in assay [4]; in assay [6]) was Active. In addition, the inhibition entry in assay [2] and in assay [5] was “Active” in each case. In assay [3], the Activity is 0.06.

Consider `CC(C)(NC(=O)[C@@H](N)Cc1c[nH]c2ccccc12)C(=O)N[C@@H](Cc1c[nH]cn1)C(=O)O` (H-Trp-[Aib]-His-OH), for which, in assay [1], the dissociation constant Kd was found to be 5.74 mM. Also, the outcome (with SH-SY5Y; in assay [4]; in assay [6]) was Active. For the same molecule, the inhibition result in assay [2] and in assay [5] was “Active” throughout. Moreover, the Activity in assay [3] stood at 0.03.

As usually defined, the Kd is the equilibrium constant for the complex coming apart.

The values above are taken from ChEMBL document CHEMBL5120852, “New Aβ(1-42) ligands from anti-amyloid antibodies: Design, synthesis, and structural interaction” (Eur J Med Chem, 2022).
